{"source": "paper PMC5794853", "about": "(Scientific Reports, 2018)", "key": {"SaRelP": {"biological_target": "T1, SaRelP (Staphylococcus aureus, UniProt W8U368)", "T1 construct": "gene ywaC; full length, N-terminal hexahistidine tag, pET24d(+), expressed in E. coli BL21(DE3), homotetramer", "experiment": "X-ray crystal structure", "assay_type": "binding", "conditions": "active site (ATP site), Mg2+, 5 mM AMPCPP, non-hydrolysable ATP analogue"}, "BsRelQ [1]": {"biological_target": "T2, BsRelQ (Bacillus subtilis, UniProt O31611, E113A)", "T2 construct": "gene yjbM; RelQ / SAS1, homotetramer", "T2 sequence (O31611 whole entry E113A)": "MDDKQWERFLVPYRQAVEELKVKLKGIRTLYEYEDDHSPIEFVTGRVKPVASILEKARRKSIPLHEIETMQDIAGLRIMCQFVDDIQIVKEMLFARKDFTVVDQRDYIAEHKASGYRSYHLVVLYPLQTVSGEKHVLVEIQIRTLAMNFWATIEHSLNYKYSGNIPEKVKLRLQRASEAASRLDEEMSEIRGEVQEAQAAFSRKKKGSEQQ", "experiment": "stimulation of ppGpp synthesis, HPLC", "assay_type": "biochemical", "conditions": "allosteric activator, 200 µM; 5 mM ATP, 0.25 mM GDP/GTP, pH 7.5, 37 °C"}, "BsRelQ [2]": {"biological_target": "T3, BsRelQ (Bacillus subtilis, UniProt O31611, H111A)", "T3 construct": "gene yjbM; RelQ / SAS1, homotetramer", "T3 sequence (O31611 whole entry H111A)": "as the sequence (O31611 whole entry E113A) above, with H111A, A113E counted along it", "experiment": "stimulation of ppGpp synthesis, HPLC", "assay_type": "biochemical", "conditions": "allosteric activator, 200 µM; 5 mM ATP, 0.25 mM GDP/GTP, pH 7.5, 37 °C"}, "BsRelQ [3]": {"biological_target": "T4, BsRelQ (Bacillus subtilis, UniProt O31611, E178A)", "T4 construct": "gene yjbM; RelQ / SAS1, homotetramer", "T4 sequence (O31611 whole entry E178A)": "as the sequence (O31611 whole entry E113A) above, with A113E, E178A counted along it", "experiment": "stimulation of ppGpp synthesis, HPLC", "assay_type": "biochemical", "conditions": "allosteric activator, 200 µM; 5 mM ATP, 0.25 mM GDP/GTP, pH 7.5, 37 °C"}, "BsRelQ [4]": {"biological_target": "T5, BsRelQ (Bacillus subtilis, UniProt O31611)", "T5 construct": "gene yjbM; RelQ / SAS1, homotetramer", "T5 sequence (O31611 1-211)": "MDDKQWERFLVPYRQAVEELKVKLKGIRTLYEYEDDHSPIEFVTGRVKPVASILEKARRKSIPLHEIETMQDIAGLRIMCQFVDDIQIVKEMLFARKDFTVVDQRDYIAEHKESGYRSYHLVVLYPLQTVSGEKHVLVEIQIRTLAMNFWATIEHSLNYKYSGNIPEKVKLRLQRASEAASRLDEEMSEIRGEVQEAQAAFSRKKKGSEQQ", "experiment": "stimulation of ppGpp synthesis, HPLC", "assay_type": "biochemical", "conditions": "allosteric activator, 0-250 µM; 5 mM ATP, pH 7.5, 20 mM MgCl2"}, "BsRelQ [5]": {"biological_target": "T6, BsRelQ (Bacillus subtilis, UniProt O31611, Q174A)", "T6 construct": "gene yjbM; RelQ / SAS1, homotetramer", "T6 sequence (O31611 whole entry Q174A)": "as the sequence (O31611 whole entry E113A) above, with A113E, Q174A counted along it", "experiment": "stimulation of ppGpp synthesis, HPLC", "assay_type": "biochemical", "conditions": "allosteric activator, 200 µM; 5 mM ATP, 0.25 mM GDP/GTP, pH 7.5, 37 °C"}, "[6]": {"biological_target": "RelP from Staphylococcus aureus (SaRelP) (Staphylococcus aureus strain Newman)", "experiment": "crystal structure; apo SaRelP, 15 mg/ml, sitting drop at room temperature, 0.1 M CHES pH 9.5, 40% (v/v) PEG600; 2.25 Å; homotetramer"}, "[7]": {"biological_target": "the molecule itself", "experiment": "crystal structure; apo BsRelP, 10 mg/ml, sitting drop at room temperature, 0.1 M CHES pH 9.5, 30% (w/v) PEG 3000; 3.3 Å; homotetramer"}}, "data": [{"molecule": "Nc1ncnc2c1ncn2[C@@H]1O[C@H](COP(=O)(O)CP(=O)(O)OP(=O)(O)O)[C@@H](O)[C@H]1O", "note": "[AMPCPP]", "values": [{"measurement": "X-ray crystal structure", "setting": "SaRelP", "result": "solve the structure of SaRelP in presence of AMPCPP"}]}, {"molecule": "Nc1nc2c(ncn2[C@@H]2O[C@H](COP(=O)(O)OP(=O)(O)OP(=O)(O)O)[C@@H](OP(=O)(O)OP(=O)(O)O)[C@H]2O)c(=O)[nH]1", "note": "[pppGpp]", "values": [{"measurement": "stimulation of ppGpp synthesis, HPLC", "setting": "BsRelQ [1]", "result": "Variation of His111 and Glu113 does not affect stimulation of BsRelQ"}, {"measurement": "stimulation of ppGpp synthesis, HPLC", "setting": "BsRelQ [2]", "result": "Variation of His111 and Glu113 does not affect stimulation of BsRelQ"}, {"measurement": "stimulation of ppGpp synthesis, HPLC", "setting": "BsRelQ [3]", "result": "upon replacement of Gln174 and Glu178 the pppGpp-stimulatory effect is decreased"}, {"measurement": "stimulation of ppGpp synthesis, HPLC", "setting": "BsRelQ [4]", "result": "determining the (p)ppGpp synthesis BsRelQ in presence of different concentrations of pppGpp"}, {"measurement": "stimulation of ppGpp synthesis, HPLC", "setting": "BsRelQ [5]", "result": "upon replacement of Gln174 and Glu178 the pppGpp-stimulatory effect is decreased"}]}, {"molecule": "RelP from Staphylococcus aureus (SaRelP) (enzyme)", "values": [{"measurement": "stoichiometry N", "setting": "[6]", "result": 4}]}, {"molecule": "RelP from Bacillus subtilis (BsRelP) (enzyme, Bacillus subtilis PY79, RelP (SAS2, YwaC), small (p)ppGpp synthetase of Bacillus subtilis PY79, gene ywaC, amplified from genomic DNA; The strep-tag was encoded by the forward primer; cloned into pET24d(+) at NcoI/XhoI; No tag cleavage is described; also called SAS2; YwaC; source: E. coli BL21 (DE3), purified (StrepTrap, SEC)) MDLSVTHMDDLKTVMEDWKNELLVYKFALDALDTKFSIISQEYNLIHGHNPIEHTKSRVKSFESIVNKLMRKGCEITTKEMKEHIHDIAGVRIICSFISDIYNVVNVLKQHEDLRIVKVKDYIQTPKPNGYRSLHLIIEMPVNLTNRVEYVKAEIQIRTIAMDFWASLEHKIYYKLNNDVPKQLTDELKEAAEIAHYLDEKMLGIKKEVD", "values": [{"measurement": "stoichiometry N", "setting": "[7]", "result": 4}]}]}
